These results are taken from publication PMC10359466, “Identification of a small-molecule inhibitor that selectively blocks DNA-binding by Trypanosoma brucei replication protein A1” (Nature Communications, 2023).

Entries after “also recorded” stand apart in the source; their conditions may differ.

In assay [1] the test system is T. brucei cells. The assay can be described thus: AlamarBlue cell viability / growth inhibition of T. brucei. The settings on record: 10 to 60 μM, even at 60 µM, 72 h.
Experimental: Synergy H1 microplate reader (BioTek) was used with 560/590 nm (excitation/emission) filter settings and relative fluorescence unit (RFU) values were obtained. The percentage of viable cells were calculated from the RFU values.
Trypanosome cells were seeded at 1 × 10^3 cells/ml density in 180 µl in a 96-well culture plate in triplicate. […] DMSO was used as a vehicle control at 0.0075%.
Assay [2] relates to human non-small cell lung cancer H460 cells. To be noted: read-out: IC50, inhibition of proliferation; cited from earlier work.

`CCOc1ccc2cc(C3CC(c4ccc(Br)cc4)=NN3C(=O)CCC(=O)O)c(Cl)nc2c1` (centres unmarked) [TDRL-505, reference compound]: in assay [1], the “Effect on T. brucei proliferation” value is listed as “did not observe any effect; also recorded: did not show any toxicity”. Also, the IC50 in assay [2] is 30.8 µM.
